Earlier results on one sequence are cited in publication PMC9889658, “The structure of MadC from Clostridium maddingley reveals new insights into class I lanthipeptide cyclases” (Frontiers in Microbiology, 2023).

This data set addresses NisB. To be noted: dependent on maturation state; ref Mavaro et al., 2011; read-out: binding affinity. The text has this:
This implies a higher relevance of the LP comp ...

With “MSTKDFNLDLVSVSKKDSGASPRITSISLCTPGCKTGALMGCNMKTATCHCSIHVSK [unmodified prenisin, unmodified nisin precursor peptide]”, the Kd was 1000 nM.
